The source of these data is patent publication US7189708B2, “Topical composition for skin” (Kao Corporation, priority 1999, dated 2007).

Peptide text beside a SMILES is read from it.

In one assay the test system is C3H mice. Kind of assay: Hair growth suppression in mouse (shaved back, topical application). The class given is in vivo. As to conditions: 100 μL twice a day on shaved back, area of hair regrowth after three weeks relative to control; for response vs control in vivo at 0.1 %: Mus musculus, topical, 504 h, 0.1% in 80% ethanol, read-out: Hair-growth suppression ratio; for Hair-growth suppression ratio: 1% in 80% ethanol. On the procedure:
Hair Growth Suppression in Mouse
The hair on a portion of the backs (size: 2 cm×4 cm) of groups of six-week-old C3H mice, each group consisting of five mice, was carefully shaved so as not to injure the skin using an electric clipper and electric shaver. To the thus-shaved portion, a sample was applied in an amount of 100 μL twice a day for four weeks. Test compounds were dissolved in a solvent (80% ethanol) to attain the concentrations shown in Table 3, to thereby prepare samples. In the control group, only the solvent was applied to the shaved portion. After three weeks, in order to observe hair regrowth, the shaved portion was photographed at a certain magnification, and the ratio of the area of hair regrowth (i.e., the ratio of the area of hair regrowth to that of the shaved area) was compared with that of the control group using an image analyzer. The hair growth suppression ratio (%) was represented by a relative value when the ratio of the area of the hair regrowth in the control group was taken as 100.

The next assay has as its system SD male rats. Kind of assay: Maintenance of skin elasticity in rat (UV-B exposed hind limb pads; cutometer and SEM linearity of elastic fibers). It is filed as in vivo. Details: Ue value / Uf value: unit not given here. The note with it: for Ue value / Uf value: 10 μL on pad after UV-B, three times a week, six weeks, cutometer 500 hPa; for Ue value: solvent only 0.02125, no treatment 0.03294; for Uf value: solvent only 0.03333, no treatment 0.04833; for Linearity: linearity of elastic fibers A/(B×C) from SEM micrographs of rat pad, linear = 1, solvent only 0.5133, no treatment 0.7345. On the procedure: Maintenance of Skin Elasticity in Rat
Three-week-old SD male rats were classified into three groups (five rats per group): a group of rats to which an 80% ethanol solution containing a test compound was applied to pads of hind limbs; a group of rats to which a solvent (80% ethanol) was applied to the pads; and a group of non-treated rats. Each pad was exposed to UV-B rays (less than 1 MED), and then the test compound-containing solution or the solvent was applied to the pad in an amount of 10 μL. The above procedure was carried out three times a week (every other day of the week days) for six weeks.
Skin elasticity was determined using a cutometer (model: SES575, product of Courage Kazaka) as follows. The skin of the pad was subjected to suction at 500 hPa for three seconds, and then released for three seconds. The displacement over six seconds was measured, to thereby obtain Ue and Uf values. The measurement was repeated five times for each pad.
The linearity of elastic fibers was analyzed according to the method of Imokawa et al. (J. Invest. Dermatol., 105, 254–258(1995)) through image analysis of an SEM micrograph. Specifically, samples for scanning electron microscopy (SEM) were prepared by fixing the pad of a rat with Mercox (product of Dainippon Ink and Chemicals, Inc.) under reflux, followed by digestion with formic acid. From SEM micrographs (×1000) of each of the samples, ten typical micrographs were selected and enlarged copies were made. Each of the enlarged micrographs was divided into 16 uniform regions. From each of the regions, any one of the elastic fibers was selected and traced on a transparent film with a line having a fixed width (width: 8 pixels). When the area surrounded by the line tracing the elastic fiber is called A, and the longitudinal length and lateral length of the minimum rectangle surrounding the trace are called B and C, respectively, the linearity of the elastic fiber is represented by A/(B×C). For example, when the trace of the elastic fiber is linear, the linearity becomes 1.

Another assay deals with hairless mouse (HR/ICR). Nature of the assay: Suppression of wrinkle formation in hairless mouse (UV-B exposure, topical application). The note with it: 100 μL on back after daily UV-B, 20 weeks, visual rating 0 (no wrinkle) to 4 (deep wrinkles), control 3.06 ± 0.13.
Setting [1] is: 0.1% test compound in 80% ethanol.
Where [2] appears, read: 1% test compound in 80% ethanol.

Description for hairless mouse (HR/ICR): Immediately after the exposure, an 80% ethanol solution (100 μL) containing a 0.1% test compound was applied to the back. The above procedure was carried out daily for 20 weeks. […] In the control group, only 80% ethanol was applied to the back of each mouse during the test. After the test, wrinkle formation was visually observed, and the degree of wrinkle formation was evaluated against the following ratings (wrinkle index).
1: A few shallow wrinkles were formed.
2: A slight amount of wrinkles was formed.
3: Some wrinkles were formed.
4: Deep wrinkles were formed.

For the compound `O=C(O)CCNC(=O)[C@H](Cc1ccccc1)NCC(=O)O` [Compound 1, N-(carboxymethyl)phenylalanyl-β-alanine], in the assay with C3H mice, the response vs control in vivo at 0.1 % amounted to 82.4%. For the same compound, in the assay with SD male rats (0.1% in 80% ethanol), the Ue value is 0.03153 ± 0.00523 and the Uf value turned out to be 0.04711 ± 0.00213. Further, the Linearity in the assay with SD male rats (0.1%) worked out at 0.7221 ± 0.0299. The “Wrinkle Index” value in the assay on hairless mouse (HR/ICR) (setting [1]) was 1.25 ± 0.11.

As for `O=C(O)CCCNC(=O)[C@H](Cc1ccccc1)NCC(=O)O` [Compound 2], the response vs control in vivo at 0.1 % in the assay with C3H mice was found to be 73.3%. Besides, the “Wrinkle Index” value with hairless mouse (HR/ICR) (setting [1]) is 2.01 ± 0.14.

As for `CC(C)C[C@H](NC(=O)[C@H](Cc1ccccc1)NCC(=O)O)C(=O)O` [Compound 3], the response vs control in vivo at 0.1 % in the assay with C3H mice amounted to 72.3%. In the assay on SD male rats (0.1% in 80% ethanol), this compound yielded a Ue value of 0.02985 ± 0.01021 and a Uf value of 0.04323 ± 0.01722. Besides, the Linearity in the assay with SD male rats (0.1%) was found to be 0.7013 ± 0.06551. Further, the “Wrinkle Index” value with hairless mouse (HR/ICR) (setting [1]) came to 1.82 ± 0.09.

Take `C[C@H](NC(=O)[C@H](Cc1ccccc1)NCC(=O)O)C(=O)O` [Compound 4]: in the assay with C3H mice, the response vs control in vivo at 0.1 % came out at 80.5%. In addition, in the assay on SD male rats (0.1% in 80% ethanol), the Ue value was found to be 0.03009 ± 0.00274 and the Uf value is 0.04533 ± 0.00971. This compound gave a Linearity with SD male rats (0.1%) of 0.7153 ± 0.0329. In addition, in the assay with hairless mouse (HR/ICR) (setting [1]), the “Wrinkle Index” value is listed as 1.75 ± 0.12.

With `O=C(O)CN[C@@H](Cc1ccccc1)C(=O)N[C@@H](CC(=O)O)C(=O)O` [Compound 5], the response vs control in vivo at 0.1 % in the assay on C3H mice came to 71%. In the assay on SD male rats (0.1% in 80% ethanol), the Ue value is 0.02694 ± 0.00157 and the Uf value came out at 0.04285 ± 0.00271. The same compound had a Linearity with SD male rats (0.1%) of 0.6652 ± 0.0239. The “Wrinkle Index” value in the assay with hairless mouse (HR/ICR) (setting [1]) stood at 2.21 ± 0.14.

`CC(=O)N[C@@H](Cc1ccccc1)C(=O)NCCC(=O)O` [Compound 6]: the response vs control in vivo at 0.1 % in the assay on C3H mice came to 58.3%. Also, in the assay with SD male rats (0.1% in 80% ethanol), the Ue value turned out to be 0.02433 ± 0.00921 and the Uf value stood at 0.03913 ± 0.00924. Besides, in the assay on SD male rats (0.1%), the Linearity is 0.6078 ± 0.0195. For the same compound, in the assay on hairless mouse (HR/ICR) (setting [1]), the “Wrinkle Index” value is reported as 2.57 ± 0.20.

On to `CN(C)[C@@H](Cc1ccccc1)C(=O)NCCC(=O)O` [Compound 7], for which the response vs control in vivo at 0.1 % with C3H mice was determined as 69.6%. For the same compound, in the assay with SD male rats (0.1% in 80% ethanol), the Ue value is 0.02623 ± 0.00874 and the Uf value turned out to be 0.0412 ± 0.00258. Moreover, in the assay with SD male rats (0.1%), the Linearity came out at 0.6423 ± 0.0433. Also, the “Wrinkle Index” value in the assay on hairless mouse (HR/ICR) (setting [1]) amounted to 2.34 ± 0.10.

In the case of `CCCN[C@@H](Cc1ccccc1)C(=O)NCCC(=O)O` [Compound 8], the response vs control in vivo at 0.1 % in the assay on C3H mice came to 77.8%. Moreover, in the assay on SD male rats (0.1% in 80% ethanol), the Ue value amounted to 0.02708 ± 0.00119 and the Uf value is listed as 0.0427 ± 0.00657. Further, the Linearity in the assay with SD male rats (0.1%) was 0.6976 ± 0.0422. The “Wrinkle Index” value in the assay on hairless mouse (HR/ICR) (setting [1]) worked out at 2.03 ± 0.09.

For `CC(C)C[C@H](NCC(=O)O)C(=O)NCCC(=O)O` [Compound 9], the response vs control in vivo at 0.1 % in the assay on C3H mice is 77.1%. Further, in the assay with SD male rats (0.1% in 80% ethanol), the Ue value is 0.02793 ± 0.00697 and the Uf value was 0.04295 ± 0.00836. This compound yielded a Linearity with SD male rats (0.1%) of 0.6892 ± 0.0157. Further, the “Wrinkle Index” value in the assay on hairless mouse (HR/ICR) (setting [1]) is on record as 2.11 ± 0.11.

For the compound `N[C@@H](Cc1ccccc1)C(=O)NCC(=O)O` [Compound 11, Phe-Gly] (H-Phe-Gly-OH), the Hair-growth suppression ratio in the assay with C3H mice is listed as 32.9%. For the same compound, in the assay with hairless mouse (HR/ICR) (setting [2]), the “Wrinkle Index” value stood at 2.82 ± 0.18.

`N[C@@H](Cc1ccccc1)C(=O)NCCC(=O)O` [Compound 12, Phe-β-Ala]: the Hair-growth suppression ratio in the assay on C3H mice is reported as 90.4%. In the assay on SD male rats (1% in 80% ethanol), this compound displayed a Ue value of 0.03326 ± 0.01267 and a Uf value of 0.04572 ± 0.01862. Moreover, the Linearity with SD male rats (1%) is on record as 0.7197 ± 0.0321. Moreover, the “Wrinkle Index” value in the assay on hairless mouse (HR/ICR) (setting [2]) is 1.98 ± 0.20.

Consider `N[C@@H](Cc1ccccc1)C(=O)N[C@@H](Cc1ccccc1)C(=O)O` [Compound 13, Phe-Phe] (H-Phe-Phe-OH), for which the Hair-growth suppression ratio in the assay with C3H mice worked out at 78.5%. Moreover, the “Wrinkle Index” value in the assay with hairless mouse (HR/ICR) (setting [2]) is reported as 2.64 ± 0.16.

As for `CC(C)C[C@H](NC(=O)[C@@H](N)Cc1ccccc1)C(=O)O` [Compound 14, Phe-Leu] (H-Phe-Leu-OH), the Hair-growth suppression ratio with C3H mice was found to be 70.9%. Besides, the “Wrinkle Index” value with hairless mouse (HR/ICR) (setting [2]) stood at 2.82 ± 0.22.

`N[C@@H](Cc1ccccc1)C(=O)N[C@@H](CC(=O)O)C(=O)O` [Compound 16, Phe-Asp] (H-Phe-Asp-OH): the Hair-growth suppression ratio with C3H mice was found to be 75.2%. Moreover, in the assay with hairless mouse (HR/ICR) (setting [2]), the “Wrinkle Index” value is reported as 2.50 ± 0.15.

Regarding `NC(Cc1ccccc1)C(=O)NCCS(=O)(=O)O` (stereo not drawn) [Compound 17, Phe-Tau], the Hair-growth suppression ratio in the assay with C3H mice is recorded as 79.5%. For the same compound, in the assay on SD male rats (1% in 80% ethanol), the Ue value stood at 0.02894 ± 0.0114 and the Uf value is recorded as 0.04369 ± 0.00872. In the assay with SD male rats (1%), this compound displayed a Linearity of 0.6913 ± 0.0341. Also, in the assay with hairless mouse (HR/ICR) (setting [2]), the “Wrinkle Index” value is 1.99 ± 0.12.
